Measurements published in patent publication US20150254433A1, “Methods and Models for Determining Likelihood of Cancer Drug Treatment Success Utilizing Predictor Biomarkers, and Methods of Diagnosing and Treating Cancer Using the Biomarkers” (priority 2014, published 2015).

test system: breast cancer cell lines; experiment: not given; settings: FIG. 2; HER2 over-expressing versus other breast cancer cell lines; cited from earlier work

Compound	drug sensitivity of HER2 over-expressing cell lines
CS(=O)(=O)CCNCc1ccc(-c2ccc3ncnc(Nc4ccc(OCc5cccc(F)c5)c(Cl)c4)c3c2)o1 [lapatinib]	comparatively high drug sensitivity

test system: breast cancer cell lines; experiment: Drug response (GI50, 50% reduction in proliferation) of breast cancer cell lines in culture; type: cell-based; settings: comparison of sensitivity ranges across cell lines
Description: Recently, large datasets describing the effects of various drugs on the growth of cancer cells in culture have been generated for the purpose of accelerating the preclinical evaluation of new compounds. One of largest datasets with respect to the number of drugs and breast cancer cell lines describes the effects of ninety (90) different drugs on seventy (70) different breast cancer cell lines. The dataset includes measurements of the concentration of each drug that causes a 50% reduction in the proliferation of cells in culture (i.e., GI50). […] Acquired resistance to chemotherapeutics or targeted agents is recognized and is being studied intensively. […] There appears to be a relatively large amount of intrinsic variability in the responses to drugs by these tumor-derived cell lines. These intrinsic differences in sensitivity, if replicated in breast tumors, could explain some of the variability in responses of tumors to chemotherapeutic drugs or targeted agents.
Another dataset that is statistically analyzed using lasso regression (e.g., a least absolute shrinkage and selection operator [i.e., lasso] regression model) includes responses of the cancer cell lines to various cancer treatment drugs (e.g., 5, 10, 20, 30, 40, 50 or more drugs). In one example described herein, the datasets include responses from approximately 90 drugs on 70 different breast cancer cell lines. As mentioned elsewhere herein, the drug response data are determined by measuring the concentration of drugs or compounds that causes a 50% reduction (e.g., GI50 or IC50 data) in the proliferation of the cells in culture.
Sensitivity is the negative base ten logarithm of the 50% growth inhibition concentration. In the RPPA dataset, which has the most cell lines, the HER2 overexpressing lines are clearly separated from the others. This difference was used to define HER2 overexpression (e.g., represented by open circles), and the same definition of overexpression versus normal expression is used in the other protein datasets and in other Figures herein. For the glycoprotein and MRM datasets, the base ten logarithms are given on the horizontal axes. The quantitative relationships between HER2 expression levels and drug sensitivities in FIG. 2 are shown in scatterplots, in which each point corresponds to a particular cell line. The protein datasets all include cell lines that overexpress HER2. These cell lines are generally clustered on the right sides of the plots as separate groups.

Compound	range of observed drug sensitivities, in words, relative to another drug
O=c1[nH]c2ccccc2n1C1CCN(Cc2ccc(-c3nc4cc5[nH]cnc5cc4nc3-c3ccccc3)cc2)CC1 [Sigma AKT1,2 inhibitor]	significantly lower
CC(=O)O[C@@]12CO[C@@H]1C[C@H](O)[C@@]1(C)C(=O)[C@H](O)C3=C(C)[C@@H](OC(=O)[C@H](O)[C@@H](NC(=O)OC(C)(C)C)c4ccccc4)C[C@@](O)([C@@H](OC(=O)c4ccccc4)[C@H]21)C3(C)C [docetaxel]	much smaller range than the sensitivity of the cell lines to rapamycin
CC(=O)O[C@H]1C(=O)[C@@]2(C)[C@H]([C@H](OC(=O)c3ccccc3)[C@]3(O)C[C@H](OC(=O)[C@H](O)[C@@H](NC(=O)c4ccccc4)c4ccccc4)C(C)=C1C3(C)C)[C@]1(OC(C)=O)CO[C@@H]1C[C@@H]2O [paclitaxel]	much smaller range than the sensitivity of the cell lines to rapamycin

same assay, conditions: sensitivity = negative base ten logarithm of the 50% growth inhibition concentration; difference between most and least sensitive cell lines

Compound	range over which the cell lines varied in sensitivity to the drug
CO[C@H]1C[C@@H]2CC[C@@H](C)[C@@](O)(O2)C(=O)C(=O)N2CCCC[C@H]2C(=O)O[C@H]([C@H](C)C[C@@H]2CC[C@@H](OCCO)[C@H](OC)C2)CC(=O)[C@H](C)/C=C(\C)[C@@H](O)[C@@H](OC)C(=O)[C@H](C)C[C@H](C)/C=C/C=C/C=C/1C [everolimus]	3.3 orders of magnitude
Nc1ccn([C@@H]2O[C@H](CO)[C@@H](O)C2(F)F)c(=O)n1 [gemcitabine]	approximately four
CO[C@H]1C[C@@H]2CC[C@@H](C)[C@@](O)(O2)C(=O)C(=O)N2CCCC[C@H]2C(=O)O[C@H]([C@H](C)C[C@@H]2CC[C@@H](O)[C@H](OC)C2)CC(=O)[C@H](C)/C=C(\C)[C@@H](O)[C@@H](OC)C(=O)[C@H](C)C[C@H](C)/C=C/C=C/C=C/1C [rapamycin]	4.6 orders of magnitude
CO[C@H]1C[C@@H]2CC[C@@H](C)[C@@](O)(O2)C(=O)C(=O)N2CCCC[C@H]2C(=O)O[C@H]([C@H](C)C[C@@H]2CC[C@@H](OC(=O)C(C)(CO)CO)[C@H](OC)C2)CC(=O)[C@H](C)/C=C(\C)[C@@H](O)[C@@H](OC)C(=O)[C@H](C)C[C@H](C)/C=C/C=C/C=C/1C [temsirolimus]	3.7 orders of magnitude
CCC1=C[C@@H]2CN(C1)Cc1c([nH]c3ccccc13)[C@@](C(=O)OC)(c1cc3c(cc1OC)N(C)[C@H]1[C@@](O)(C(=O)OC)[C@H](OC(C)=O)[C@]4(CC)C=CCN5CC[C@]31[C@@H]54)C2 [vinorelbine]	approximately four
